Source: patent US4525458A, “Method for the production of sphingomyelinase” (priority 1981, dated 1985)

System: sphingomyelinase
Experiment: Substrate specificity
Assay type: biochemical, Streptomyces sp. A 9107
Details: as substrate; sphingomyelin = 100
Description: (§1) After preincubating 0.45 ml of the following reaction mixture at 37° C., 50 μl of an enzyme solution is added to start the reaction. After just 10 minutes, 0.1 ml of 0.1M EDTA is added to stop the reaction.
(§2) The formed phosphorylcholine is led to a color development system through a H2 O2 by using the following reaction mixture, and absorbance at 500 nm is measured.
(§3) The indication of enzymatic activity is calculated from the following equation with activity to produce 1 μmole of phosphorylcholine for 1 minute as one unit:
(§4) wherein ΔA500 nm means a difference in absorbance at 500 nm between at the start of reaction and 10 minutes after the reaction.
(10) SUBSTRATE SPECIFICITY

With Phosphatidyl serine as the compound, how does the “Relative activity (%)” value read?
The value was 0%.

Which “Relative activity (%)” value does the source give for Sphingomyelin here?
The value was 100%.

With Phosphatidyl ethanolamine as the compound, how does the “Relative activity (%)” value read?
The value was 0%.

With Lecithin as the compound, how does the “Relative activity (%)” value read?
Its value is 0%.

Which “Relative activity (%)” value does the source give for Lysolecithin here?
Its value is 0%.

Which “Relative activity (%)” value does the source give for Phosphatidyl inositol here?
The value was 0%.

System: sphingomyelinase
Experiment: Effect of metal ions on enzymatic activity
Assay type: biochemical, Streptomyces sp. A 9107
Details: additive 1 mM; no addition = 100
Description: as §1, §2, §3, §4

For `[Cl-].[Cl-].[Zn+2]` [ZnCl2], which “Relative activity (%)” value is on record?
Its value is 3%.

For `[Cl][Ni][Cl]` [NiCl2], which “Relative activity (%)” value is on record?
Its value is 12%.

With `[Cl][Cu][Cl]` [CuCl2] as the compound, how does the “Relative activity (%)” value read?
The value was 19%.

For `[Cl-].[Cl-].[Co+2]` [CoCl2], which “Relative activity (%)” value is on record?
The value was 35%.

With `[Cl][Mn][Cl]` [MnCl2] as the compound, how does the “Relative activity (%)” value read?
The value was 236%.

With `[Cl-].[Cl-].[Mg+2]` [MgCl2] as the compound, how does the “Relative activity (%)” value read?
The value was 232%.

With `[Ba+2].[Cl-].[Cl-]` [BaCl2] as the compound, how does the “Relative activity (%)” value read?
Its value is 89%.

For `[Ca+2].[Cl-].[Cl-]` [CaCl2], which “Relative activity (%)” value is on record?
Its value is 48%.

Same assay, conditions: additive 100 mM; no addition = 100

Which “Relative activity (%)” value does the source give for `Cl.N` [NH4 Cl] here?
The value was 79%.

With `[Cl-].[Na+]` [NaCl] as the compound, how does the “Relative activity (%)” value read?
The value was 73%.

With `[Cl-].[K+]` [KCl] as the compound, how does the “Relative activity (%)” value read?
Its value is 90%.

System: not listed separately
Experiment: Isoelectric point by electrophoretic method using ampholite
Assay type: physicochemical
Details: not given
Description: It is determined by the electrophoretic method using ampholite, a carrier. The pH obtained is 8.6.

With sphingomyelinase [enzyme] as the compound, how does the Isoelectric point read?
Its Isoelectric point is 8.6 pH.

System: sphingomyelinase
Experiment: Effect of surfactant on enzymatic activity
Assay type: biochemical, Streptomyces sp. A 9107
Details: additive 0.1%; no addition = 100
Description: as §1, §2, §3, §4

Which “Relative activity (%)” value does the source give for `C[C@H](CCC(=O)O)[C@H]1CC[C@H]2[C@@H]3CC[C@@H]4C[C@H](O)CC[C@]4(C)[C@H]3C[C@H](O)[C@]12C` [Sodium deoxycholate] here?
The value was 16%.

With Sodium laurylbenzenesulfonate as the compound, how does the “Relative activity (%)” value read?
Its value is 8%.

With Triton X-100 as the compound, how does the “Relative activity (%)” value read?
The value was 358%.

For `CCCCCCCCCCCCOS(=O)(=O)[O-].[Na+]` [Sodium laurylsulfate], which “Relative activity (%)” value is on record?
The value was 13%.

System: not listed separately
Experiment: Measurement of enzymatic activity (specific activity of preparations)
Assay type: biochemical
Details: 1 unit = 1 μmole phosphorylcholine per minute
Description: as §1, §2, §3, §4

For sphingomyelinase [enzyme], which Specific activity is on record?
Its Specific activity is 1,050 U/mg.

System: not listed separately
Experiment: Thermal stability (residual activity)
Assay type: physicochemical
Details: 23 u/ml in 100 mM Tris-HCl buffer (pH 7.0), heated for 10 minutes
Description: An enzyme solution is prepared so that its concentration in 100 mM Tris-HCl buffer (pH 7.0) is 23 u/ml, and measured for the residual activity after heated for 10 minutes at every temperatures shown on the abscissa in FIG. 3. The liquor is kept stable until the treatment at 40° C. for 10 minutes.

For sphingomyelinase [enzyme], which “Temperature until which kept stable” value is on record?
Its value is no more than 40 °C.
